Consider 1 compound from publication PMC9228535, “Antistaphylococcal Activities and ADME-Related Properties of Chlorinated Arylcarbamoylnaphthalenylcarbamates” (Pharmaceuticals, 2022).

Molecules are shown by their SMILES. In brackets after ≈: the same amount, converted by molar mass.

The nature of data set [1]: Lipophilicity determination by RP-HPLC (log k, log D). It is filed as physicochemical.
The test system of data set [2] is MRSA SA 630. The data set is described as follows: MBC, agar aliquot subculture method. Conditions: Staphylococcus aureus. The format is cell-based.
In data set [3] the test system is MRSA SA 3202. The data set is described as follows: MBC, agar aliquot subculture method. Conditions: Staphylococcus aureus. It is filed as cell-based.
The test system of data set [4] is Staphylococcus aureus ATCC 29213. The data set is described as follows: MBC, agar aliquot subculture method. The format is cell-based. Particulars: ATCC29213.
The next data set concerns THP-1 cells. The data set is described as follows: In vitro cytotoxicity assay (WST-1). It is filed as cell-based. Particulars: Homo sapiens, THP-1, 24 h. A general note: Tetrazolium dyes change colour on reduction, which living cells bring about.
The test system of data set [5] is MRSA SA 630. Kind of data set: MIC, microtitration broth method. It is filed as cell-based. Particulars: Staphylococcus aureus, 24 h.
Data set [6] relates to MRSA SA 3202. The data set is described as follows: MIC, microtitration broth method. The format is cell-based. Particulars: Staphylococcus aureus, 24 h.
The test system of data set [7] is Staphylococcus aureus ATCC 29213. The data set is described as follows: MIC, microtitration broth method. Particulars: ATCC29213, 24 h. It is filed as cell-based.
For the next data set, the system named is MRSA 63718. Kind of data set: MIC, microtitration broth method. It is filed as cell-based. Particulars: Staphylococcus aureus, MRSA, 24 h.

Consider `CCNC(=O)Oc1c(C(=O)Nc2cc(Cl)c(Cl)cc2Cl)ccc2ccccc12` [Compound 2, 2-[N-(2,4,5-Trichlorophenyl)carbamoyl]naphthalen-1-yl ethyl carbamate], for which, in data set [1], the “lipophilicity (experimental log k/log D, approximate)” value is listed as “ca. 0.83”. Moreover, the “log D6.5” value in data set [1] (RP-HPLC, MeOH 72%/acetate buffered saline pH 6.5) was 0.8294. Also, the “log D7.4” value in [1] (RP-HPLC, MeOH 72%/acetate buffered saline pH 7.4) worked out at 0.8339. In [1] (RP-HPLC, MeOH 72%/water 28%), this compound gave a log k of 0.8249. Moreover, the MBC (in general, the smallest concentration meeting the test's criterion for killing) stood at 0.144 µM (≈ 63 ng/mL) against MRSA SA 630 [2], 0.073 µM (≈ 32 ng/mL) with MRSA SA 3202 [3] and 0.018 µM (≈ 7.88 ng/mL) in data set [4]. Also, the midpoint of inhibition in the data set with THP-1 cells, the IC50, lay at 2850 ± 170 nM. The MIC (commonly the lowest concentration found to suppress growth) against MRSA SA 630 [5] is 0.018 µM (≈ 7.88 ng/mL); against MRSA SA 3202 [6], 0.018 µM (≈ 7.88 ng/mL); in data set [7], 0.018 µM (≈ 7.88 ng/mL); with MRSA 63718 it was 0.144 µM (≈ 63 ng/mL).
